{"source": "patent US20060217340A1", "about": "“Methods and products for treating hypertension by modulation of TRPC3 channel activity” (University of Vermont and State Agricultural College, priority 2005, published 2006)", "assay_type_in_all_cases": "cell-based, rat", "key": {"TRPC3": {"tested_on": "TRPC3", "test": "Western analysis of TRPC3 protein expression in arteries", "protocol": "(§1) Western Analysis. Arterial segments were homogenized in lysis buffer (5 minutes, 4° C.) containing (in mM): 40 CAPS, 1 DL-Dithiothreitol (DTT), 10 EDTA, 15 MgCl2, 115 NaCl, 1 NaOrthovanadate, 1 NaF, 2.5 Urea, and 0.25% deoxychlorate, 10% glycerol, 1% NP-40, 0.2% SDS, and 1:50 mammalian protease inhibitor cocktail (Sigma, St. Louis, Mo., USA). Equal amounts of sample protein were separated on a 10% polyacrylamide gel and transferred to a nitrocellulose membrane. The membranes were exposed to a TRPC3 or TRPC6 polyclonal antibody (anti-rabbit 1:200 dilution, Alomone Labs, Jerusalem, Israel) and a […] (GAPDH) monoclonal antibody (anti-mouse, 1:1000 dilution, Chemicon Labs, Temecula, Calif., USA). Alexa-Fluor 680® goat anti-rabbit (Molecular Probes, Eugene, Oreg., USA) and IRDyeTM800 anti-mouse (Rockland Immunochemicals, Gilbertsville, Pa., USA) were used to fluorescently label the TRPC3 and GAPDH antibodies respectively. The density of signals specific for the TRPC3 and GAPDH bands in a given lane on a membrane were measured after scanning the membrane with an Odyssey® infared imaging system (Li-COR Biosciences, Lincoln, Nebr., USA). Quantified amounts were normalized to a total protein amount lane on the polyacrylamide gel.\nOligodeoxynucleotide Sequences and Reverse Permeabilization. TRPC6 sense and antisense oligodeoxynucleotides (ODN's) were designed as previously described (Welsh et al 2002 Circ Res 90, 248-250) and were as follows: sense, 5′-[…]-3′ (SEQ ID: 3) and 5′-GCACACGCAGCCTCTTCAC-3′ (SEQ ID: 4) antisense, 5′-[…]-3′ (SEQ ID: 5) and 5′-[…]-3′ (SEQ ID: 6). TRPC3 sense and antisense ODN's were designed based on the rat TRPC3 gene (Ohki et al 2000 J Biol Chem 275: 39055-39060) and are as follows: sense, 5′-[…]-3′ (SEQ ID: 7) and 5′-[…]-3′ (SEQ ID: 8); anti-sense, 5′-[…]-3′ (SEQ ID: 9) and 5′-[…]-3′ (SEQ ID: 10). The last five bases on the 5′ and 3′ end were phosphorothioated in order to limit ODN degradation. […]"}, "TRPC6": {"tested_on": "TRPC6", "test": "Western analysis of TRPC6 protein expression in arteries", "conditions": "cerebral arterial SMCs", "protocol": "as §1\n(§2) Oligodeoxynucleotide Sequences and Reverse Permeabilization. […]"}, "[1]": {"tested_on": "glyceraldehyde dehydrogenase (GAPDH)", "test": "Western analysis of GAPDH protein expression in cerebral artery", "conditions": "3 days organ culture", "protocol": "as §1, §2"}}, "data": [{"substance": "5′-GAGAACCATGAACTGGAATA-3′ (SEQ ID: 9) and 5′-ACGACCAACACGACCAGACA-3′ (SEQ ID: 10) (phosphorothioate ends, further chemistry not given here) [TRPC3 antisense, antisense ODNs based on the rat TRPC3 gene; last five bases on the 5′ and 3′ end phosphorothioated]", "values": [{"measurement": "TRPC3 expression reduced (Western blots of arterial lysates)", "setting": "TRPC3; TRPC3 antisense compared with sense treated arteries", "result": "~60", "unit": "%"}, {"measurement": "TRPC3 to GAPDH ratio less in antisense compared to sense treated samples", "setting": "TRPC3; after 3 days of organ culture, n=4 each", "result": "42.5±11.4", "unit": "%"}, {"measurement": "effect on the expression of TRPC6", "setting": "TRPC6", "result": "no effect"}, {"measurement": "effect on the expression of GAPDH", "setting": "[1]", "result": "no effect"}]}]}
